{"source": "patent US7834038B2", "about": "“Methods for preparing nonpeptidic oligomers from amino acids” (New York University, priority 2005, dated 2010)", "origin": "cited, not measured here", "target": "HIV-1 protease (Human immunodeficiency virus type 1 group M subtype B, UniProt P04585)", "conditions": "known inhibitors, statement in words", "note": "“Also recorded” adds a separate entry of the source."}
{"smiles": "CC(C)[C@H](NC(=O)OCc1ccccc1)C(=O)N[C@@H](Cc1ccccc1)[C@@H](O)[C@H](Cc1ccccc1)NC(=O)[C@H](NC(=O)OCc1ccccc1)C(C)C", "note": "[A-74704]", "values": [{"measurement": "inhibition of HIV-1 protease", "value": "very high affinities; also recorded: powerful inhibitor"}]}
{"smiles": "O=C(N[C@H]1c2ccccc2C[C@H]1O)[C@H](Cc1ccccc1)CC(O)C[C@@H](Cc1ccccc1)C(=O)N[C@H]1c2ccccc2C[C@H]1O", "note": "[L-700,417]", "values": [{"measurement": "inhibition of HIV-1 protease", "value": "very high affinities"}]}
